# Experimental data taken from patent publication US11513122B2, “Predicting response to PD-1 axis inhibitors” (Hoffmann-La Roche Inc., priority 2016, dated 2022).
# Columns and labels:
# [1] = tested on: patients with non-small cell lung cancer (NSCLC); test: Phase II clinical trial POPLAR (NCT01903993), overall survival by DC gene expression; type: in vivo, human
# Excerpt: Further to Example 3, we analyzed 193 patients with non-small cell lung cancer (NSCLC) previously treated, then received atezolizumab or docetaxel in a Phase II clinical trial POPLAR. This study is registered with ClinicalTrials.gov, number NCT01903993. POPLAR is a multicentre, randomised, open-label phase II trial, done at 61 academic medical centers and community oncology practices across 13 countries in Europe and North America. The study was done in full accordance with the guidelines for Good Clinical Practice and the Declaration of Helsinki. Protocol (and modification) approval was obtained from an independent ethics committee for each site (Fehrenbacher L, et. Al., Lancet 2016). Among those patients with squamous or non-squamous NSCLC, 96 received Docetaxel, and 92 received atezolizumab, and the rest of 5 left untreated (Table 1).
# Tumor specimens at baseline were archived and taken for gene expression profiling performed by RNA Sequencing (RNA-Seq). Based on literature (Merad M. et al, Ann. Rev. Immunol. 2013), we selected a list of genes consisting of XCR1, IRF8, BATF3, and FLT3, which are associated with human dendritic cell phenotypes and development with cross-presenting specialization. Normalized read counts of each selected gene across the whole cohort were divided at medium expression level for the higher expression ones (+) and lower/no expression ones (−). Using in-house R scripts the two defined subgroups were plotted against the Kaplan-Meier survival curves. In addition, Cox-regression analysis was used to calculate the hazard ratio (HR) between the two patient groups divided based on positive and negative gene expression.
# We also investigated the impact of multiple genes involved in human DC development and function (XCR1, BATF3, FLT3, and IRF8) by defining a cumulative DC gene score (DC score) reflecting the cumulative expression of these marker genes. Each gene's expression is first standardized by a z-score:
# where μ and σ are estimated in the entire cohort or in the selected subgroups. After the standardization step, these standardized z-score values are averaged across genes within each patient. The cohort was corrected for the smoking status, ECOG and sex of patient. Then the score was plotted against the Kaplan-Meier survival curves.
# [2] = tested on: MC38 cells (colorectal cancer cell lines); test: MC38 tumor model in CD11c-DTR mice with or without DC depletion by DT; type: in vivo; conditions: MC38 s.c.; DT 100 ng at day 6; anti-PD-L1 Ab 10 mg/kg from day 7, weekly; FIG. 6B
# Procedure: To further study the contribution of DCs by PD-L1 blockade in mediating anti-tumor immunity, we obtained the CD11c-DTR mice from the Jackson laboratory (B6.FVB-Tg(Itgax-DTR/EGFP)57Lan/J, Cat. No. 004509). […]. When tumor is palpable at day 6, mice were treated with 100 ng of DT (Sigma-Aldrich) or left untreated. At day 7, a anti-PD-L1 Ab (10 mg/kg, murine IgG1, clone 6E11, Genentech) was given to mice, followed by weekly injection (FIG. 6A). […] Our data support the concept that DCs are needed for PD-L1 Ab to achieve its maximum anti-tumor efficacy.
# [3] = tested on: human DCs; test: Maturation of monocyte-derived DCs by LPS, PD-1/PD-L1 staining by flow cytometry; type: cell-based; conditions: LPS 10 ng/mL, FIGS. 2A-2B
# Procedure: To address the potential regulation of PD-1 and its ligands on human DCs, monocyte-derived DCs were generated using the classical method. Briefly, Peripheral Blood Mononuclear Cells (PBMCs) were isolated from buffy-coats (Blutspende, Schlieren) from healthy human donors, using Ficoll-Paque™ Plus (GE Healthcare, #17-1440-03) density gradient. Rings of PBMCs were collected and washed with PBS two times by centrifugation (5′ at 763 g; 5′ at 600 g). A lysis was conducted using 10 mL of BD Pharm Lyse™ (BD Biosciences, #555899) diluted at 1× with sterile water and incubated 1,5 minute at room temperature. Two washes with Phosphate-buffered saline 1× (PBS; Gibco® by live technologies™, #20012-019) were conducted by centrifugation (8′ at 135 g). Cells number and quality were evaluated using Cell counter (Beckman Coulter®). Separate unrelated donors were used for each independent experiment. Monocytes were isolated from fresh PBMCs by negative selection using Human monocyte enrichment kit (StemCell, #19059) in MACs buffer (1450 mL Automacs™ Rinsing solution, Miltenyi #130-091-222; and 75 mL MACS BSA stock Solution, Miltenyi #130-091-376) according to the manufacturer's instructions. […] The cells were then stained with anti-PD-1-PE-Cy7 and anti-PD-L1-APC Abs (BioLegend®; #329917, #329707), and measured by flow cytometry (BD). […]
# [4] = tested on: patients with renal cell carcinoma; test: Phase I clinical trial (NCT01375842), response and survival by DC gene expression; type: in vivo, human
# Excerpt: We hypothesized that patients with DC abundance may respond to PD-L1 blockade leading to beneficial effect in patients who received the treatment. We analyzed 56 patients with renal cell carcinoma who received Atezolizumab in a Phase I clinical trial (NCT01375842) (www.clinicaltrials.gov). This study was sponsored by Genentech Inc., a member of the Roche Group, which provided the study drug. The protocol and its amendments were approved by the relevant institutional review boards or ethics committees, and all participants provided written informed consent. This study was conducted in accordance with the Declaration of Helsinki and International Conference on Harmonization Guidelines for Good Clinical Practice. In total, 56 patients were analyzed. Based on the “Best Confirmed Overall Response by the Investigator” we observed 6 responders (CR=1; PR=5) and 47 non-responder (PD=21; SD=26) as well as 3 patients without known information (FIG. 7).
# Tumor specimens at baseline were archived and taken for gene expression profiling performed by RNA Sequencing (RNA-Seq). Based on literature (Merad, ann rev immunol 2013), we selected a list of genes consisting of XCR1, IRF8, BATF3 and FLT3, which are associated with human dendritic cell development with cross-presenting specialization. The log 2 RPKM expression values of each selected gene across the whole cohort were divided at medium expression level for the higher expression ones (+) and lower/no expression ones (−). Using in-house R scripts the two defined subgroups were plotted against the Kaplan-Meier survival curves. […] The medium survival between patients with higher expression versus lower/no expression were separated for at least 15.6 months or longer (FIG. 9).
# As several genes linked to human dendritic cell development were associated with the survival advantages, we investigated the impact of multiple genes involved in human DC development and function by defining a cumulative DC gene score (DC score) reflecting the cumulative expression of these marker genes. Each gene's expression is first standardized by a z-score: z=(x−μ)/σ,
# where μ and σ are estimated in the entire cohort or in the selected subgroups. After the standardization step, these standardized z-score values are averaged across genes within each patient. The RCC cohort was corrected for the sex of patient as well as the Stage at Initial Diagnosis.
# [5] = NSCLC, XCR1 divided at medium expression level
compound,measurement,setting,value
CC(=O)O[C@@]12CO[C@@H]1C[C@H](O)[C@@]1(C)C(=O)[C@H](O)C3=C(C)[C@@H](OC(=O)[C@H](O)[C@@H](NC(=O)OC(C)(C)C)c4ccccc4)C[C@@](O)([C@@H](OC(=O)c4ccccc4)[C@H]21)C3(C)C [docetaxel],correlation of XCR1 expression to survival,[1]; NSCLC,no correlation
same,correlation of DC genes expression to survival,[1]; PD-L1+ patients,no correlation
diphtheria toxin [DT],tumor growth,[2],did not impact the tumor growth
lipopolysaccharide [LPS],PD-1 expression on DCs upon maturation,[3],downregulated
same,PD-L1 expression on DCs upon maturation,[3],upregulated
atezolizumab,"separation of medium OS, higher versus lower/no XCR1 expression",[1]; NSCLC,~7 months
same,"medium overall survival (mOS), patients with higher XCR1 expression",[1]; [5],15.5 month
same,"medium overall survival (mOS), patients with lower/no XCR1 expression",[1]; [5],8.6 month
same,"medium OS, patients with higher DC signature score","[1]; NSCLC, all patients",16.4 months
same,"medium OS, patients with lower/no DC signature expression","[1]; NSCLC, all patients",8.5 months
same,"separation of medium OS, higher versus lower/no DC signature expression","[1]; NSCLC, all patients",7.9 months
same,"HR, higher versus lower DC signature score","[1]; NSCLC, all patients, p=0.04, FIG. 11",0.54
same,"hazard ratio (HR) by Cox-regression analysis, higher versus lower/no XCR1 expression","[1]; NSCLC, p=0.077",0.6
same,"median OS, patients with lower/no expression",[1]; PD-L1+ patients,8.4 months
same,"medium OS, patients with higher DC gene score",[1]; PD-L1+ patients,not reached
same,"HR, higher versus lower DC signature score","[1]; PD-L1+ patients (TC3, TC2, IC3, IC2), p=0.03, FIG. 12",0.25
same,CR,[4]; 56 patients analyzed,1
same,PD,[4]; 56 patients analyzed,21
same,PR,[4]; 56 patients analyzed,5
same,non-responder,[4]; 56 patients analyzed,47
same,responders (Best Confirmed Overall Response by the Investigator),"[4]; 56 patients analyzed, FIG. 7",6
same,"HR, higher versus lower DC score","[4]; RCC, p=0.03, FIG. 10",0.38
same,"medium survival, patients with higher DC score","[4]; cumulative DC gene score (XCR1, IRF8, BATF3, FLT3), FIG. 10",without reaching medium survival
same,separation of medium survival between patients with higher expression versus lower/no expression,"[4]; single genes XCR1, IRF8, BATF3, FLT3, FIG. 9",at least 15.6 months
